In patent US7713994B2 (Wyeth LLC, priority 2005, dated 2010):

target: T1, IGF1-receptor kinase (Homo sapiens, UniProt P08069); assay: IGF1-R kinase assay (96-well FRET Lance); format: biochemical; details: 10 uM compound
T1 construct: Purified GST-IGFR; purified Bis-IGFR and Tris-IGFR; fused on or other part: GST with a thrombin cleavage site, removed in the Bis-IGFR and Tris-IGFR forms
Excerpt: • TITLE: 96-well assay for inhibitors of IGF1-receptor kinase activity • SHORT TITLE: IGF1-R kinase assay • PURPOSE: Identify inhibitors of IGF-1 receptor kinase activity • MATERIALS AND METHODS: Overview: This is a 96-well FRET (Lance) tyrosine kinase assay. • Materials: • Purified GST-IGFR; purified Bis-IGFR and Tris-IGFR; expressed in ExpresSF insect cells. Bis and Tris IGFR are made by phosphorylating the IGFR in the presence of ATP and Mg2+, followed by thrombin cleavage to remove the GST-thrombin cleavage site, and purification by HPLC. The Bis and tris IGFR are phosphorylated on two (bis) or all three tyrosines (tris) in the activation loop. • Biotinylated peptide with a sequence corresponding to the sequence surrounding the autophosphorylation sites in IGF1-R Biotin-NH2-[…]-OH (Anaspec) • Europium-conjugated phosphotyrosine antibody (PT66) (Perkin-Elmer). • Surelight APC (Perkin-elmer) • Plates: 96-well Assay plates (polypropylene plates, natural color) • 96-well-Lance plates (Microfluor 2 black plates; Cat # 7205; Thermolabsystems. • ATP: (Amersham Pharmacia Cat # 27-2056-01), 100 mM stock. • IGFR Lance Protocol (96-well format) • Procedure: • Reagents: • Kinase Buffer (10×): • 0.5 M Hepes, pH 7.5 rt • 0.1 M MgCl2 • Quench Buffer (to be added straight, 1:1, to r×n mix): • 50 mM Hepes, pH 7.5 rt • 50 mM EDTA • Lance Detection Buffer: • 20 mM Tris-HCl, pH 7.5 rt • 0.15 M NaCl-150 • 150 ug/ml BSA (Sigma Cat# A-7284) • Eu-labeled phosphotyrosine antibody PT66 (Perkin-Elmer): 1:4000 dilution of 200 μg/ml stock • Streptavidin-APC (Perkin Elmer): 1/250 (4 microgram/ml final) • ATP (Amersham Pharmacia cat #27-2056-01) 100 mM stock: Dilute to 1 mM (10×) in water. […] Transfer 12.5[…] of the kinase reaction to the antibody detection plate. Allow antibody to react for 1 h at rt in the dark. Then read in Victor with an excitation filter of 340 nm and an emission filter of 665 nm. • Compound additions: • When Example compounds are tested, they are added from a 10% DMSO/50 mM Hepes (pH 7.5) 10× stock. 5 microliters of compound in this buffer are added to the enzyme-peptide-buffer mix. After 10′ incubation at room temperature, ATP is added to start the reaction. A no ATP background control is included in the assay. • […] OF RESULTS: Data are analyzed as follows: % Inhibition={[Sample cpm−Bkg cpm]/[No cmpd cpm−Bkg cpm]}×100%. The biological activity of representative Examples of the invention is reported in Table VII as: 0.2 µM≦x≦10 µM or % inhibition@10 µM.

T1 sequence (P08069 999-1274 limits assumed): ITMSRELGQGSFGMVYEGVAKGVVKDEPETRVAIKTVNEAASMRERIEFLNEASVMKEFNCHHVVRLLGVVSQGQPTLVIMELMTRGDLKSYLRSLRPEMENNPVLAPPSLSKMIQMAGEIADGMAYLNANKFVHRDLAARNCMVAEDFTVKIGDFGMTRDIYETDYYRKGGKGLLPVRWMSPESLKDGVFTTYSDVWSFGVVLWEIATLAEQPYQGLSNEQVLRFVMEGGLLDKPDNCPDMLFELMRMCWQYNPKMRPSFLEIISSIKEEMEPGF

Igfr % Inhibition at 10 uM	Structure (SMILES)
9%	O=C1NC(=O)c2ccc(Nc3ccc4[nH]ccc4c3)cc2/C1=C/Nc1ccc(CN2CCCCC2)cc1 [Example 912]

same assay, conditions: 10 uM compound; read-out: Igfr % Inhibition at 10 uM

inhibition at 10 µM	Structure (SMILES)
33%	Nc1cccc(Nc2ccc3c(c2)/C(=C/Nc2ccc(CN4CCCCC4)cc2)C(=O)NC3=O)c1 [Example 883, (4Z)-6-[(3-aminophenyl)amino]-4-({[4-(piperidin-1-ylmethyl)phenyl]amino}methylene)isoquinoline-1,3(2H,4H)-dione]
45%	CCOC(=O)c1ccc(Nc2ccc3c(c2)/C(=C/Nc2ccc(CN4CCCCC4)cc2)C(=O)NC3=O)cc1 [Example 903, ethyl 4-{[(4Z)-1,3-dioxo-4-({[4-(piperidin-1-ylmethyl)phenyl]amino}methylene)-1,2,3,4-tetrahydroisoquinolin-6-yl]amino}benzoate]
20%	Cc1cccc(Nc2ccc3c(c2)/C(=C/Nc2ccc(CN4CCCCC4)cc2)C(=O)NC3=O)c1 [Example 884, (4Z)-6-[(3-methylphenyl)amino]-4-({[4-(piperidin-1-ylmethyl)phenyl]amino}methylene)isoquinoline-1,3(2H,4H)-dione]

same assay, conditions: 100 micromolar ATP; read-out: Igfr ic50

IC50	Structure (SMILES)
7220 nM	O=C1NC(=O)c2ccc(Nc3ccc4c(c3)CCC4)cc2/C1=C/Nc1ccc(CN2CCCCC2)cc1 [Example 895, (4Z)-6-(2,3-dihydro-1H-inden-5-ylamino)-4-({[4-(piperidin-1-ylmethyl)phenyl]amino}methylene)isoquinoline-1,3(2H,4H)-dione]
3090 nM	O=C1NC(=O)c2ccc(Nc3cccc(F)c3)cc2/C1=C/Nc1ccc(CN2CCCCC2)cc1 [Example 899, (4Z)-6-[(3-fluorophenyl)amino]-4-({[4-(piperidin-1-ylmethyl)phenyl]amino}methylene)isoquinoline-1,3(2H,4H)-dione]
3700 nM	N#Cc1ccccc1Nc1ccc2c(c1)/C(=C/Nc1ccc(CN3CCCCC3)cc1)C(=O)NC2=O [Example 902, 2-{[(4Z)-1,3-dioxo-4-({[4-(piperidin-1-ylmethyl)phenyl]amino}methylene)-1,2,3,4-tetrahydroisoquinolin-6-yl]amino}benzonitrile]
1520 nM	N#Cc1ccc(Nc2ccc3c(c2)/C(=C/Nc2ccc(CN4CCCCC4)cc2)C(=O)NC3=O)cc1 [Example 897, 4-{[(4Z)-1,3-dioxo-4-({[4-(piperidin-1-ylmethyl)phenyl]amino}methylene)-1,2,3,4-tetrahydroisoquinolin-6-yl]amino}benzonitrile]
868 nM	COc1ccc(Nc2ccc3c(c2)/C(=C/Nc2ccc(CN4CCCCC4)cc2)C(=O)NC3=O)cc1 [Example 898, (4Z)-6-[(4-methoxyphenyl)amino]-4-({[4-(piperidin-1-ylmethyl)phenyl]amino}methylene)isoquinoline-1,3(2H,4H)-dione]
6160 nM	O=C1NC(=O)c2ccc(Nc3cccc4ncccc34)cc2/C1=C/Nc1ccc(CN2CCCCC2)cc1 [Example 913, (4Z)-4-({[4-(piperidin-1-ylmethyl)phenyl]amino}methylene)-6-(quinolin-5-ylamino)isoquinoline-1,3(2H,4H)-dione]
1390 nM	COc1cccc(Nc2ccc3c(c2)/C(=C/Nc2ccc(CN(C)C)cc2)C(=O)NC3=O)c1 [Example 907, (4Z)-4-[({4-[(dimethylamino)methyl]phenyl}amino)methylene]-6-[(3-methoxyphenyl)amino]isoquinoline-1,3(2H,4H)-dione]

Further lines, the molecule ahead of its results:

Structure (SMILES)	IC50
COc1cccc(Nc2ccc3c(c2)/C(=C/Nc2ccc(CN4CCCCC4)cc2)C(=O)NC3=O)c1 [Example 892, (4Z)-6-[(3-methoxyphenyl)amino]-4-({[4-(piperidin-1-ylmethyl)phenyl]amino}methylene)isoquinoline-1,3(2H,4H)-dione]	954 nM
Cc1ccccc1Nc1ccc2c(c1)/C(=C/Nc1ccc(CN3CCCCC3)cc1)C(=O)NC2=O [Example 882, 4-[(4-piperidin-1-ylmethyl-phenylamino)-methylene]-6-o-tolylamino-4H-isoquinoline-1,3-dione]	4470 nM
O=C1NC(=O)c2ccc(Nc3ccccc3)cc2/C1=C/Nc1ccc(CN2CCCCC2)cc1 [Example 887, (4Z)-6-anilino-4-({[4-(piperidin-1-ylmethyl)phenyl]amino}methylene)isoquinoline-1,3(2H,4H)-dione]	208 nM
CC(=O)c1cccc(Nc2ccc3c(c2)/C(=C/Nc2ccc(N4CCN(C)CC4)cc2)C(=O)NC3=O)c1 [Example 881]	361 nM
N#Cc1cccc(Nc2ccc3c(c2)/C(=C/Nc2ccc(CN4CCCCC4)cc2)C(=O)NC3=O)c1 [Example 893, 3-{[(4Z)-1,3-dioxo-4-({[4-(piperidin-1-ylmethyl)phenyl]amino}methylene)-1,2,3,4-tetrahydroisoquinolin-6-yl]amino}benzonitrile]	708 nM
COc1ccccc1Nc1ccc2c(c1)/C(=C/Nc1ccc(CN3CCCCC3)cc1)C(=O)NC2=O [Example 891]	575 nM
Cc1ccc(Nc2ccc3c(c2)/C(=C/Nc2ccc(CN4CCCCC4)cc2)C(=O)NC3=O)cc1 [Example 889, (4Z)-6-[(4-methylphenyl)amino]-4-({[4-(piperidin-1-ylmethyl)phenyl]amino}methylene)isoquinoline-1,3(2H,4H)-dione]	394 nM
NC(=O)c1ccc(Nc2ccc3c(c2)/C(=C/Nc2ccc(CN4CCCCC4)cc2)C(=O)NC3=O)cc1 [Example 894, 4-{[(4Z)-1,3-dioxo-4-({[4-(piperidin-1-ylmethyl)phenyl]amino}methylene)-1,2,3,4-tetrahydroisoquinolin-6-yl]amino}benzamide]	1110 nM
